Results as given in patent US11491167B2, “Combination product of Bcl-2 inhibitor and chemotherapeutic agent and use thereof in the prevention and/or treatment of diseases” (ASCENTAGE PHARMA (SUZHOU) CO., LTD., priority 2018, dated 2022).
Values joined by “and” are separate entries in the source; they are usually repeats but may differ in a detail not shown here. Identical values can stand only once. Like-named read-outs stand apart in the source and are kept apart here.

What was measured:
[1] = test system: human NCI-H146 (SCLC) mouse xenograft tumor model; details: 5 mice per group; for RTV on day 21 after administration (mean ± standard error) / T/C (%) on day 21 after administration / RTV on day 35 after administration (mean ± standard error) / T/C (%) on day 35 after administration: Compound 6 100 mg/kg p.o. qd; for RTV on day 21 after administration (mean ± standard error) / T/C (%) on day 21 after administration: TPT 1 mg/kg p.o. d1-5/w then d1-3/w; for RTV on day 35 after administration (mean ± standard error) / T/C (%) on day 35 after administration: TPT 1 mg/kg p.o.; for CR (tumor complete regression), mice on day 21 after administration / PR (tumor partial regression), mice on day 21 after administration: Compound 6 100 mg/kg, TPT 1 mg/kg; for CR (tumor complete regression), mice on day 46 after administration / PR (tumor partial regression), mice on day 46 after administration / Tumor remission rate % on day 46 after administration: day 46, observation after discontinuation; for Tumor remission rate % on day 21 after administration / Tumor remission rate % on day 46 after administration: remission including CR, PR and SD
Protocol: A subcutaneous xenograft tumor model of human tumor immunodeficient mice was established by cell inoculation: tumor cells in logarithmic growth phase were collected, counted and resuspended in 1×PBS, and the cell suspension concentration was adjusted to 2.5-5×10^7/mL. Using a 1 mL syringe ([…]), the tumor cells were inoculated subcutaneously in the right side of immunodeficient mice, 5-10×106/0.2 mL/mouse (All animals were purchased from Beijing Vital River Laboratory Animal Technology Co., Ltd. SCXK (Beijing) 2012-0001). All animal experiments were strictly in accordance with the laboratory animal use and management practices of GenePharma Co., Ltd. and Ascentage Pharma Group Co., Ltd. The calculation of relevant parameters referred to the Chinese CFDA “Guidelines for Non-Clinical Research Techniques of Cytotoxic Antitumor Drugs”. The NCI-H146 cells used in the Institute were a gift from Professor Wang Shaomeng of the University of Michigan, USA.
Animal body weight and tumor size were measured twice a week during the experiment. The conditions and death of the animals were observed every day. Routine monitoring included the effects of tumor growth and treatment on normal animal behaviors, including activity, feeding and drinking situations, weight gain or loss, eyes, coat and other abnormalities in the experimental animals. The deaths and clinical symptoms observed during the experiment were recorded in the raw data. The entire operations of administration, measurement of mouse body weight and tumor volume were performed in a clean bench. Plasma and tumor tissues were collected, weighed and photographed after the end of the last administration according to the experimental protocol. Plasma and tumor samples were frozen and stored at −80° C.
Tumor volume (TV) was calculated as: TV=a×b2/2, in which a and b represented the length and width of the tumor as measured, respectively. The relative tumor volume (RTV) was calculated as: RTV=Vt/V1, in which V1 was the tumor volume at the time of grouping and administration, and Vt was the tumor volume measured on a day after administration. […] Change of body weight %=(measured body weight−body weight at the time of grouping)/body weight at the time of grouping×100%.
The synergistic analysis was performed by the following formula 6: synergy factor=((A/C)×(B/C))/(AB/C); A=RTV value of the group administered with A only; B=RTV value of the group administered with B only; C=RTV value of the vehicle control group; AB=RTV value of the group administered with A and B in combination (Clarke R. Issues in experimental design and endpoint analysis in the study of experimental cytotoxic agents in vivo in breast cancer and other models [J]. Breast Cancer Research & Treatment, 1997, 46(2-3): 255-278).
(1) The experimental method was as described in Section (2) of Example 1. In the experiment, the SCLC mouse xenograft tumor model derived from human NCI-H146 tumor cells was established (Gould S E et al. Translational value of mouse models in oncology drug development. Nature medicine. 2015 21, 431-439). When the tumor volume reached 100-200 mm3, randomization was performed according to tumor volume and mouse body weight, and two independent in vivo experiments were performed on the model to evaluate the anti-tumor effects of the combination of Compound 6 and the chemotherapeutic agent TPT (topotecan).
In this experiment, Compound 6 was administered at a dose of 100 mg/kg, p.o., qd; TPT was administered at a dose of 1 mg/kg, p.o., d1-5/w (i.e., a 2-day interval after 5 days of administration).

[2] = test system: NCI-H146 (small cell lung cancer (SCLC)); test: WST (CCK-8) anti-proliferation experiment, topotecan alone or combined with Compound 6; assay type: cell-based; details: Homo sapiens, NCI-H146, 72 h, topotecan alone, read-out: IC50 for proliferation inhibition

| SMILES | RTV on day 21 after administration (mean ± standard error) [1] | T/C (%) on day 21 after administration [1] | RTV on day 35 after administration (mean ± standard error) [1] | T/C (%) on day 35 after administration [1] | CR (tumor complete regression), mice on day 21 after administration [1] | PR (tumor partial regression), mice on day 21 after administration [1] | CR (tumor complete regression), mice on day 46 after administration [1] | PR (tumor partial regression), mice on day 46 after administration [1] | Tumor remission rate % on day 21 after administration [1] | Tumor remission rate % on day 46 after administration [1] | CR (tumor complete regression), mice on day 21 after administration ([1]; listed as TPT) | PR (tumor partial regression), mice on day 21 after administration ([1]; listed as TPT) | IC50 ([2]; NCI-H146 (SCLC), first experiment) | IC50 ([2]; another NCI-H146 (SCLC) experiment) |
| --- | --- | --- | --- | --- | --- | --- | --- | --- | --- | --- | --- | --- | --- | --- |
| O=C(NS(=O)(=O)c1ccc(NC[C@H]2COCCO2)c([N+](=O)[O-])c1)c1ccc(N2CCN(CC3=C(c4ccc(Cl)cc4)CC4(CCC4)CC3)CC2)cc1Oc1cnc2[nH]ccc2c1 [Compound 6, (S)-N-((4-(((1,4-dioxan-2-yl)methyl)amino)-3-nitrophenyl)sulfonyl)-2-((1H-pyrrolo[2,3-b]pyridin-5-yl)oxy)-4-(4-((6-(4-chlorophenyl)spiro[3.5]non-6-en-7-yl)methyl)piperazin-1-yl)benzamide] | 2.51 ± 0.25 | 49% | 4.89 ± 0.39 | 52% | 0/5CR, 0/5PR, | 0/5CR, 0/5PR, | 0/5CR, 0/5PR, | 0/5CR, 0/5PR, | 0% | 0% |  |  |  |  |
| CC[C@@]1(O)C(=O)OCc2c1cc1n(c2=O)Cc2cc3c(CN(C)C)c(O)ccc3nc2-1 [topotecan] | 0.26 ± 0.12 | 5% | 0.77 ± 0.35 | 8% |  |  | 2/5 | 0/5 | 100% | 40% | 2 and 2/5 | 3 and 3/5 | 127 nM | 68 nM |
